{
  "source": "the supplement of paper PMC10307832",
  "experiment_in_all_cases": "relative viability (nuclei count vs DMSO), 5 days (fraction); higher = more cells survive",
  "key": {"[1]": {"test_system": "201T", "in_short": "(§1)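 One day after seeding in 1536-well plates, lung cancer cell lines were dosed by pin tool. Dosing was either single-drug or a fixed anchor-drug dose plus five library-drug doses (not always all listed) in √10 steps. After 5 days, nuclei were stained in one fix-and-stain step and counted on 4× images, and relative viability is the nuclei count of treated wells over that of vehicle wells, given as the median of duplicate plates.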"}, "[2]": {"test_system": "BEN", "in_short": "as §1"}, "[3]": {"test_system": "CAL-12T", "in_short": "as §1"}, "[4]": {"test_system": "COR-L 105", "in_short": "as §1"}, "[5]": {"test_system": "EKVX", "in_short": "as §1"}, "[6]": {"test_system": "HARA", "in_short": "as §1"}, "[7]": {"test_system": "HCC-366", "in_short": "as §1"}, "[8]": {"test_system": "LK-2", "in_short": "as §1"}, "[9]": {"test_system": "LOU-NH91", "in_short": "as §1"}, "[10]": {"test_system": "NCI-H1437", "in_short": "as §1"}, "[11]": {"test_system": "NCI-H1650", "in_short": "as §1"}, "[12]": {"test_system": "NCI-H1666", "in_short": "as §1"}, "[13]": {"test_system": "NCI-H2009", "in_short": "as §1"}, "[14]": {"test_system": "NCI-H2170", "in_short": "as §1"}, "[15]": {"test_system": "NCI-H3122", "in_short": "as §1"}, "[16]": {"test_system": "NCI-H441", "in_short": "as §1"}, "[17]": {"test_system": "NCI-H460", "in_short": "as §1"}, "[18]": {"test_system": "NCI-H727", "in_short": "as §1"}, "[19]": {"test_system": "PC-14", "in_short": "as §1"}},
  "data": [
    {"smiles": "O=c1cc(N2CCOCC2)oc2c(-c3cccc4c3sc3ccccc34)cccc12", "note": "+ CC1(C)CCC(c2ccc(Cl)cc2)=C(CN2CCN(c3ccc(C(=O)NS(=O)(=O)c4ccc(N[C@H](CCN5CCOCC5)CSc5ccccc5)c(S(=O)(=O)C(F)(F)F)c4)cc3)CC2)C1 [Navitoclax] (partner 0.5 µM)", "values": [
      {"measurement": "relative viability", "setting": "[1]; first compound 0.01 µM", "value": 1.2},
      {"measurement": "relative viability", "setting": "[1]; first compound 0.03162 µM", "value": 1.17},
      {"measurement": "relative viability", "setting": "[1]; first compound 0.1 µM", "value": 1.19},
      {"measurement": "relative viability", "setting": "[1]; first compound 0.3162 µM", "value": 1.19},
      {"measurement": "relative viability", "setting": "[1]; first compound 1 µM", "value": 1.18},
      {"measurement": "relative viability", "setting": "[2]; first compound 0.01 µM", "value": 0.155},
      {"measurement": "relative viability", "setting": "[2]; first compound 0.03162 µM", "value": 0.0681},
      {"measurement": "relative viability", "setting": "[2]; first compound 0.1 µM", "value": 0.0673},
      {"measurement": "relative viability", "setting": "[2]; first compound 0.3162 µM", "value": 0.0807},
      {"measurement": "relative viability", "setting": "[2]; first compound 1 µM", "value": 0.0563},
      {"measurement": "relative viability", "setting": "[3]; first compound 0.01 µM", "value": 1.47},
      {"measurement": "relative viability", "setting": "[3]; first compound 0.03162 µM", "value": 1.17},
      {"measurement": "relative viability", "setting": "[3]; first compound 0.1 µM", "value": 1.36},
      {"measurement": "relative viability", "setting": "[3]; first compound 0.3162 µM", "value": 1.45},
      {"measurement": "relative viability", "setting": "[3]; first compound 1 µM", "value": 1.16},
      {"measurement": "relative viability", "setting": "[4]; first compound 0.01 µM", "value": 0.91},
      {"measurement": "relative viability", "setting": "[4]; first compound 0.03162 µM", "value": 0.817},
      {"measurement": "relative viability", "setting": "[4]; first compound 0.1 µM", "value": 0.79},
      {"measurement": "relative viability", "setting": "[4]; first compound 0.3162 µM", "value": 0.73},
      {"measurement": "relative viability", "setting": "[4]; first compound 1 µM", "value": 0.676},
      {"measurement": "relative viability", "setting": "[5]; first compound 0.01 µM", "value": 1.02},
      {"measurement": "relative viability", "setting": "[5]; first compound 0.03162 µM", "value": 0.903},
      {"measurement": "relative viability", "setting": "[5]; first compound 0.1 µM", "value": 0.991},
      {"measurement": "relative viability", "setting": "[5]; first compound 0.3162 µM", "value": 0.956},
      {"measurement": "relative viability", "setting": "[5]; first compound 1 µM", "value": 0.871},
      {"measurement": "relative viability", "setting": "[6]; first compound 0.01 µM", "value": 1.11},
      {"measurement": "relative viability", "setting": "[6]; first compound 0.03162 µM", "value": 1.13},
      {"measurement": "relative viability", "setting": "[6]; first compound 0.1 µM", "value": 1.15},
      {"measurement": "relative viability", "setting": "[6]; first compound 0.3162 µM", "value": 1.17},
      {"measurement": "relative viability", "setting": "[6]; first compound 1 µM", "value": 1.14},
      {"measurement": "relative viability", "setting": "[7]; first compound 0.01 µM", "value": 1.11},
      {"measurement": "relative viability", "setting": "[7]; first compound 0.03162 µM", "value": 1.1},
      {"measurement": "relative viability", "setting": "[7]; first compound 0.1 µM", "value": 1.08},
      {"measurement": "relative viability", "setting": "[7]; first compound 0.3162 µM", "value": 1},
      {"measurement": "relative viability", "setting": "[7]; first compound 1 µM", "value": 1.04},
      {"measurement": "relative viability", "setting": "[8]; first compound 0.01 µM", "value": 0.882},
      {"measurement": "relative viability", "setting": "[8]; first compound 0.03162 µM", "value": 0.886},
      {"measurement": "relative viability", "setting": "[8]; first compound 0.1 µM", "value": 0.896},
      {"measurement": "relative viability", "setting": "[8]; first compound 0.3162 µM", "value": 0.874},
      {"measurement": "relative viability", "setting": "[8]; first compound 1 µM", "value": 1.07},
      {"measurement": "relative viability", "setting": "[9]; first compound 0.01 µM", "value": 0.637},
      {"measurement": "relative viability", "setting": "[9]; first compound 0.03162 µM", "value": 0.631},
      {"measurement": "relative viability", "setting": "[9]; first compound 0.1 µM", "value": 0.695},
      {"measurement": "relative viability", "setting": "[9]; first compound 0.3162 µM", "value": 0.747},
      {"measurement": "relative viability", "setting": "[9]; first compound 1 µM", "value": 0.689},
      {"measurement": "relative viability", "setting": "[10]; first compound 0.01 µM", "value": 1.05},
      {"measurement": "relative viability", "setting": "[10]; first compound 0.03162 µM", "value": 1.13},
      {"measurement": "relative viability", "setting": "[10]; first compound 0.1 µM", "value": 1.16},
      {"measurement": "relative viability", "setting": "[10]; first compound 0.3162 µM", "value": 1.05},
      {"measurement": "relative viability", "setting": "[10]; first compound 1 µM", "value": 1.05},
      {"measurement": "relative viability", "setting": "[11]; first compound 0.03162 µM", "value": 1.07},
      {"measurement": "relative viability", "setting": "[11]; first compound 0.1 µM", "value": 1.07},
      {"measurement": "relative viability", "setting": "[11]; first compound 0.3162 µM", "value": 1.47},
      {"measurement": "relative viability", "setting": "[11]; first compound 1 µM", "value": 1.07},
      {"measurement": "relative viability", "setting": "[12]; first compound 0.01 µM", "value": 0.941},
      {"measurement": "relative viability", "setting": "[12]; first compound 0.03162 µM", "value": 0.899},
      {"measurement": "relative viability", "setting": "[12]; first compound 0.1 µM", "value": 0.819},
      {"measurement": "relative viability", "setting": "[12]; first compound 0.3162 µM", "value": 0.798},
      {"measurement": "relative viability", "setting": "[12]; first compound 1 µM", "value": 0.895},
      {"measurement": "relative viability", "setting": "[13]; first compound 0.01 µM", "value": 1.14},
      {"measurement": "relative viability", "setting": "[13]; first compound 0.03162 µM", "value": 1.16},
      {"measurement": "relative viability", "setting": "[13]; first compound 0.1 µM", "value": 1.14},
      {"measurement": "relative viability", "setting": "[13]; first compound 0.3162 µM", "value": 1.19},
      {"measurement": "relative viability", "setting": "[13]; first compound 1 µM", "value": 1.05},
      {"measurement": "relative viability", "setting": "[14]; first compound 0.01 µM", "value": 0.69},
      {"measurement": "relative viability", "setting": "[14]; first compound 0.03162 µM", "value": 0.741},
      {"measurement": "relative viability", "setting": "[14]; first compound 0.1 µM", "value": 0.599},
      {"measurement": "relative viability", "setting": "[14]; first compound 0.3162 µM", "value": 0.62},
      {"measurement": "relative viability", "setting": "[14]; first compound 1 µM", "value": 0.605},
      {"measurement": "relative viability", "setting": "[15]; first compound 0.01 µM", "value": 1.02},
      {"measurement": "relative viability", "setting": "[15]; first compound 0.03162 µM", "value": 0.981},
      {"measurement": "relative viability", "setting": "[15]; first compound 0.1 µM", "value": 1.02},
      {"measurement": "relative viability", "setting": "[15]; first compound 0.3162 µM", "value": 0.966},
      {"measurement": "relative viability", "setting": "[15]; first compound 1 µM", "value": 0.985},
      {"measurement": "relative viability", "setting": "[16]; first compound 0.01 µM", "value": 0.53},
      {"measurement": "relative viability", "setting": "[16]; first compound 0.03162 µM", "value": 0.787},
      {"measurement": "relative viability", "setting": "[16]; first compound 0.1 µM", "value": 1.59},
      {"measurement": "relative viability", "setting": "[16]; first compound 0.3162 µM", "value": 0.738},
      {"measurement": "relative viability", "setting": "[16]; first compound 1 µM", "value": 0.585},
      {"measurement": "relative viability", "setting": "[17]; first compound 0.01 µM", "value": 1.06},
      {"measurement": "relative viability", "setting": "[17]; first compound 0.03162 µM", "value": 1.07},
      {"measurement": "relative viability", "setting": "[17]; first compound 0.1 µM", "value": 1.28},
      {"measurement": "relative viability", "setting": "[17]; first compound 0.3162 µM", "value": 1.04},
      {"measurement": "relative viability", "setting": "[17]; first compound 1 µM", "value": 1.12},
      {"measurement": "relative viability", "setting": "[18]; first compound 0.01 µM", "value": 0.47},
      {"measurement": "relative viability", "setting": "[18]; first compound 0.03162 µM", "value": 0.512},
      {"measurement": "relative viability", "setting": "[18]; first compound 0.1 µM", "value": 0.39},
      {"measurement": "relative viability", "setting": "[18]; first compound 0.3162 µM", "value": 0.398},
      {"measurement": "relative viability", "setting": "[18]; first compound 1 µM", "value": 0.438},
      {"measurement": "relative viability", "setting": "[19]; first compound 0.01 µM", "value": 1.09},
      {"measurement": "relative viability", "setting": "[19]; first compound 0.03162 µM", "value": 0.95},
      {"measurement": "relative viability", "setting": "[19]; first compound 0.1 µM", "value": 1.08},
      {"measurement": "relative viability", "setting": "[19]; first compound 0.3162 µM", "value": 1.07},
      {"measurement": "relative viability", "setting": "[19]; first compound 1 µM", "value": 1.03}
    ]}
  ]
}
